From patent EP0565593B1, “REDUCING PESTICIDAL INTERACTIONS IN CROPS” (priority 1990, dated 1992)

Assays:
[1] = system: Corn; assay: Multi-crop greenhouse test, herbicide POE (Examples 62-64; Tables 61-63); type: in vivo; conditions: COUNTER 15G and BEACON; Example 62
Description: Tests according to this invention in various crops indicate widespread application of the invention. In Examples 62-66 below are described tests with a variety of herbicides contacted with COUNTER® 15G in the presence and absence of MON-7400 (Antidote No. 12); MON-13900 (No. 1); MON-4660 (No. 16) and flurazole (No. 16). Those tests were conducted according to Procedures IV or V described above and illustrated further in other foregoing examples. Plants used in all tests were, for crops (as abbreviated in parentheses); cotton (COTT); soybean (SOBE); CORN, grain sorghum (GRSO); wheat (WHEA) and RICE, and the weeds giant foxtail (GIFT) and velvetleaf (VELE). The data in the tables below represent averages of two replications.
In this test the crops and weeds were planted 1.3 cm deep in 13.7 cm X 27.7 cm pans containing Dupo silt loam soil. The test safeners were applied in acetone solution and COUNTER 15G as dry granules to soil cover layers and incorporated by shaking in a bag. Treated cover layers were placed on seeded pans which were transferred to greenhouse benches and subirrigated. Herbicide was applied POE six (6) days after PPI initiation and observations of plant injury made ten (10) days later; results are shown in Table 61. The herbicide used in this example was BEACON (No. 8).
The test procedure described in Example 62 was repeated using ACCENT® (Herbicide No. 7) as the herbicide; the biocide and safeners were the same.

[2] = system: Velvetleaf (VELE); assay: Greenhouse test Procedure VI (Examples 59-61; Tables 58-60); type: in vivo, Abutilon theophrasti
From the text: This procedure describes interaction among herbicide, biocide and antidote when the herbicide is incorporated in a soil cover layer and the biocide and the antidote are applied in a soil furrow containing crop seed before emergence of the crop. The soil and seeding depth were described in Procedure IV. A first container was designated as an untreated control, a second container was designated as a herbicide control, a third container was designated as a herbicide + biocide control and a fourth container as a herbicide + biocide + antidote test container. The biocide and antidote were formulated as granules. The biocide was applied to the soil furrows of the third and fourth containers at an application rate of 1.1 mg of active compound per cm of row. The antidote was applied to the soil furrow of the fourth container at an application rate of 0.37 mg of active compound per cm of row. A measured amount of the herbicide dispersed or dissolved in acetone was applied to a measured quantity of soil. The quantity of soil treated with the herbicide was thoroughly mixed to incorporate the herbicide. Samples of this soil were used to cover the seed beds of the second, third and fourth containers. For each test series, the seed bed of the first container was likewise covered by a soil layer not treated with herbicide and without biocide or antidote in the soil furrow.
The containers were then placed on a bench in a greenhouse. Watering was by subirrigation plus overhead irrigation after the plants emerged. All treatments were run in duplicate. Plant response was observed according to Procedure IV. Variations in this procedure will be noted in the examples.
The procedure used in this example involved the PPI application of biocide and safener as described in general Procedure VI above. The "primary" herbicide in this test was MON-12000 (Herbi-cide No. 1) in admixture with other herbicides designated as "co-herbicides", which included LASSO® (co-herbicide B); DUAL® (C); acetochlor (A); EPTAM® (D); butylate (E) and PURSUIT® (K).
The in-furrow treatments with blended COUNTER 15G and antidote mixtures was as described in above examples. MON-12000 and the co-herbicides were formulated in acetone and applied as tank mixtures, incorporated into Dupo silt loam soil with a rotary drum mixer. Subsamples were used to cover seeded and in-furrow treated 10.2 cm pots. Pots were placed on greenhouse benches and subirrigated. Plant responses were observed thirteen days after PPI initiation. Test results (average of two replications) are shown in Table 58, wherein giant foxtail (GIFT) was used in place of shattercane.
This test was conducted in the same manner used in Example 59. All biocide and antidote components were the same and in these tests XRD-498 (Herbicide No. 21) was the prime herbicide. Co-herbicides are shown in Table 59 together with test data.
In one other test conducted as described in the preceding examples in this series of tests, the herbicide PURSUIT® was used as the primary herbicide (in the context of this invention) together with the same insecticide and safeners as above and the co-herbicides shown in Table 60, together with test results.

[3] = Antidote + Biocide No. 1 in furrow, Herbicide No. 6 0.14 Kg/Ha PPI
[4] = Antidote + Biocide No. 1 in furrow, Herbicide No. 11 0.0044 Kg/Ha PPI
[5] = Antidote + Biocide No. 1 in furrow, Herbicide No. 12 0.0044 Kg/Ha PPI
[6] = Antidote + Biocide No. 1 in furrow, Herbicide No. 13 0.0011 Kg/Ha PPI
[7] = Antidote + Biocide No. 1 in furrow, Herbicide No. 13 0.0022 Kg/Ha PPI
[8] = Antidote + Biocide No. 1 in furrow, Herbicide No. 14 0.07 Kg/Ha PPI
[9] = Antidote + Biocide No. 1 in furrow, Herbicide No. 16 0.07 Kg/Ha PPI, 13 days
[10] = Antidote + Biocide No. 1 in furrow, Herbicide No. 17 0.14 Kg/Ha PPI, 13 days
[11] = Antidote + Biocide No. 1 in furrow, Herbicide No. 18 0.04 Kg/Ha PPI, 13 days
[12] = Antidote + Biocide No. 1 in furrow, Herbicide No. 20 1.12 Kg/Ha PPI, 13 days
[13] = Antidote + Biocide No. 1 in furrow, Herbicide No. 22 0.28 Kg/Ha PPI, 13 days
[14] = Antidote + Biocide No. 1 in furrow, Herbicide No. 24 0.14 Kg/Ha PPI, 13 days
[15] = Antidote + Biocide No. 1 in furrow, Herbicide No. 25 0.14 Kg/Ha PPI, 13 days
[16] = Antidote + Biocide No. 1 in furrow, Herbicide No. 26 2.24 Kg/Ha PPI, 13 days
[17] = Antidote + Biocide No. 1 in furrow, Herbicide No. 28 0.04 Kg/Ha PPI, 13 days

| SMILES | corn injury [1] | % Inhibition VELE [2, 3] | % Inhibition VELE [2, 4] | % Inhibition VELE [2, 5] | % Inhibition VELE [2, 6] | % Inhibition VELE [2, 7] | % Inhibition VELE [2, 8] | % Inhibition VELE [2, 9] | % Inhibition VELE [2, 10] | % Inhibition VELE [2, 11] | % Inhibition VELE [2, 12] | % Inhibition VELE [2, 13] | % Inhibition VELE [2, 14] | % Inhibition VELE [2, 15] | % Inhibition VELE [2, 16] | % Inhibition VELE [2, 17] | % Inhibition VELE ([2]; Herbicide No. 12 0.0044 Kg/Ha PPI + Biocide No. 1 in furrow, no antidote) | % Inhibition VELE ([2]; Herbicide No. 12 0.0044 Kg/Ha PPI alone, average of two reps) |
| --- | --- | --- | --- | --- | --- | --- | --- | --- | --- | --- | --- | --- | --- | --- | --- | --- | --- | --- |
| O=C(OCc1ccccc1)c1sc(Cl)nc1C(F)(F)F [Antidote No. 7, 5-Thiazolecarboxylic acid, 2-chloro-4-(trifluoromethyl)-, (phenylmethyl) ester] | effectively reduced |  |  |  |  |  |  |  |  |  |  |  |  |  |  |  |  |  |
| COC(=O)COC(c1ccccc1)c1ccccc1 [Antidote No. 12, Acetic acid, (diphenylmethoxy)-, methyl ester] | effectively reduced |  |  |  |  |  |  |  |  |  |  |  |  |  |  |  |  |  |
| CC1(C)OC(c2ccco2)CN1C(=O)C(Cl)Cl (centres unmarked) [Antidote No. 1, Oxazolidine, 3-(dichloroacetyl)-2,2-dimethyl-5-(2-furanyl)-] | effectively reduced |  |  |  |  |  |  |  |  |  |  |  |  |  |  |  |  |  |
| CC1(C)OC(c2ccco2)CN1C(=O)C(Cl)Cl (centres unmarked) [compound 1] |  | 70% | 75% | 55% | 25% | 60% | 85% | 60% | 80% | 50% | 95% | 80% | 90% | 75% | 65% | 90% |  |  |
| N#CCOc1ccc(Cl)c2cccnc12 [compound 33] |  | 70% | 65% | 60% | 20% | 50% | 85% | 65% | 75% | 40% | 90% | 90% | 95% | 70% | 50% | 80% |  |  |
| COC(=O)COC(c1ccccc1)c1ccccc1 [compound 12] |  | 65% | 70% | 60% | 15% | 60% | 85% | 60% | 80% | 70% | 95% | 75% | 90% | 70% | 55% | 80% | 50% | 50% |
